According to ChEMBL document CHEMBL4609983, “Pan-specific and partially selective dye-labeled peptidic inhibitors of the polycomb paralog proteins” (Bioorg Med Chem, 2020):
Active and inactive are the calls of the source. Non-standard residues stand in square brackets, D forms with d. Residues, ends and D or L forms follow the SMILES beside them. *: point of attachment. Biotin = O=C1N[C@H]2[C@H](CS[C@H]2CCCCC(=O)*)N1; Lys(Me3) = C[N+](C)(C)CCCC[C@H](N)C(=O)O; Benzoyl(4-Br) = O=C(c1ccc(Br)cc1)*

Experiments:
[1] = target: T1, Chromobox protein homolog 6 (Homo sapiens) (UniProt O95503); test: Binding affinity to recombinant human CBX6 by microarray based assay
T1 sequence (whole entry): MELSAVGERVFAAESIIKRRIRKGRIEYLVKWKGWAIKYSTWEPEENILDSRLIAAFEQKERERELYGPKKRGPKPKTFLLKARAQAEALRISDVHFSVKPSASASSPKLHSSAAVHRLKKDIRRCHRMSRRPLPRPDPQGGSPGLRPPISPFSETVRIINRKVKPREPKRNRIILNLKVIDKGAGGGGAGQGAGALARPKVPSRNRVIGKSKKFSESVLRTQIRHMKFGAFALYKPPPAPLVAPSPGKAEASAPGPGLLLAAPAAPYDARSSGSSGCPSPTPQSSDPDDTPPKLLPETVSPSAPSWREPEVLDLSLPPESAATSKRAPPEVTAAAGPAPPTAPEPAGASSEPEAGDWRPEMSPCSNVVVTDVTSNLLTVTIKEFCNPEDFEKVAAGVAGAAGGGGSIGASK

[2] = target: T2, Chromobox protein homolog 7 (Homo sapiens) (UniProt O95931); test: Binding affinity to recombinant human CBX7 by microarray based assay
T2 sequence (whole entry): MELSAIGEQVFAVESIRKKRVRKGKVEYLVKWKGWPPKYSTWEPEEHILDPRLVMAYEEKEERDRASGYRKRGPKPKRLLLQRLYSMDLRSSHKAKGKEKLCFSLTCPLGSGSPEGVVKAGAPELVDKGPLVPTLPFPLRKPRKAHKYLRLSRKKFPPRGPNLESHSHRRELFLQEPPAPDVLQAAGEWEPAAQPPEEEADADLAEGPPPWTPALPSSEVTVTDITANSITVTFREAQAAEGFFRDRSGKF

[3] = target: T3, Chromobox protein homolog 8 (Homo sapiens) (UniProt Q9HC52); test: Binding affinity to recombinant human CBX8 by microarray based assay
T3 sequence (whole entry): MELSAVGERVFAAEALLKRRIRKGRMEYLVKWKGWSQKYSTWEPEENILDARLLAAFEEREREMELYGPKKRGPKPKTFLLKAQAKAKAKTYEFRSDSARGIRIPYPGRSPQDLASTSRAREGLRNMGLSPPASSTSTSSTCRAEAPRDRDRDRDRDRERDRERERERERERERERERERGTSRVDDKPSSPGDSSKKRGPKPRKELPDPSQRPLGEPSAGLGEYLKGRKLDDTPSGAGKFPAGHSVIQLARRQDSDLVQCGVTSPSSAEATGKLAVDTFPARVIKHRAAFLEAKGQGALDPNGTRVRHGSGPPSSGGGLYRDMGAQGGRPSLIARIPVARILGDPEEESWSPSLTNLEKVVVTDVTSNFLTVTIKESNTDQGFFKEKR

Measured: Activity

CC(C)C[C@H](NC(=O)[C@H](CO)NC(=O)[C@H](CCCC[N+](C)(C)C)NC(=O)[C@H](Cc1ccc(O)cc1)NC(=O)[C@H](C)NC(=O)[C@H](Cc1ccccc1)NC(=O)c1ccc(Br)cc1)C(=O)N[C@@H](CCCCNC(=O)CCCC[C@@H]1SC[C@@H]2NC(=O)N[C@@H]21)C(N)=O ({Benzoyl(4-Br)}-FAY[Lys(Me3)]SLK(Biotin)-NH2)
active: [1] | [2] | [3]
